Results reported in US10457654B2 (GENENTECH, INC., priority 2017, dated 2019).
Where a name gives a salt, the structure may show the parent alone.

Tests used:
hNav1.7 [1] = biological target: T1, hNav1.7 (Homo sapiens (Human), UniProt Q15858); test: Tritiated compound binding to membranes from cells expressing hNav1.7 and the β1 subunit, modified protocol (LBA, Ex. 243B); conditions: 300 pM [3H]compound, room temperature, read-out: Nav1.7 LBA (Ex. 243B) IC50
Target sequence in this assay (Q15858 whole entry, looked up): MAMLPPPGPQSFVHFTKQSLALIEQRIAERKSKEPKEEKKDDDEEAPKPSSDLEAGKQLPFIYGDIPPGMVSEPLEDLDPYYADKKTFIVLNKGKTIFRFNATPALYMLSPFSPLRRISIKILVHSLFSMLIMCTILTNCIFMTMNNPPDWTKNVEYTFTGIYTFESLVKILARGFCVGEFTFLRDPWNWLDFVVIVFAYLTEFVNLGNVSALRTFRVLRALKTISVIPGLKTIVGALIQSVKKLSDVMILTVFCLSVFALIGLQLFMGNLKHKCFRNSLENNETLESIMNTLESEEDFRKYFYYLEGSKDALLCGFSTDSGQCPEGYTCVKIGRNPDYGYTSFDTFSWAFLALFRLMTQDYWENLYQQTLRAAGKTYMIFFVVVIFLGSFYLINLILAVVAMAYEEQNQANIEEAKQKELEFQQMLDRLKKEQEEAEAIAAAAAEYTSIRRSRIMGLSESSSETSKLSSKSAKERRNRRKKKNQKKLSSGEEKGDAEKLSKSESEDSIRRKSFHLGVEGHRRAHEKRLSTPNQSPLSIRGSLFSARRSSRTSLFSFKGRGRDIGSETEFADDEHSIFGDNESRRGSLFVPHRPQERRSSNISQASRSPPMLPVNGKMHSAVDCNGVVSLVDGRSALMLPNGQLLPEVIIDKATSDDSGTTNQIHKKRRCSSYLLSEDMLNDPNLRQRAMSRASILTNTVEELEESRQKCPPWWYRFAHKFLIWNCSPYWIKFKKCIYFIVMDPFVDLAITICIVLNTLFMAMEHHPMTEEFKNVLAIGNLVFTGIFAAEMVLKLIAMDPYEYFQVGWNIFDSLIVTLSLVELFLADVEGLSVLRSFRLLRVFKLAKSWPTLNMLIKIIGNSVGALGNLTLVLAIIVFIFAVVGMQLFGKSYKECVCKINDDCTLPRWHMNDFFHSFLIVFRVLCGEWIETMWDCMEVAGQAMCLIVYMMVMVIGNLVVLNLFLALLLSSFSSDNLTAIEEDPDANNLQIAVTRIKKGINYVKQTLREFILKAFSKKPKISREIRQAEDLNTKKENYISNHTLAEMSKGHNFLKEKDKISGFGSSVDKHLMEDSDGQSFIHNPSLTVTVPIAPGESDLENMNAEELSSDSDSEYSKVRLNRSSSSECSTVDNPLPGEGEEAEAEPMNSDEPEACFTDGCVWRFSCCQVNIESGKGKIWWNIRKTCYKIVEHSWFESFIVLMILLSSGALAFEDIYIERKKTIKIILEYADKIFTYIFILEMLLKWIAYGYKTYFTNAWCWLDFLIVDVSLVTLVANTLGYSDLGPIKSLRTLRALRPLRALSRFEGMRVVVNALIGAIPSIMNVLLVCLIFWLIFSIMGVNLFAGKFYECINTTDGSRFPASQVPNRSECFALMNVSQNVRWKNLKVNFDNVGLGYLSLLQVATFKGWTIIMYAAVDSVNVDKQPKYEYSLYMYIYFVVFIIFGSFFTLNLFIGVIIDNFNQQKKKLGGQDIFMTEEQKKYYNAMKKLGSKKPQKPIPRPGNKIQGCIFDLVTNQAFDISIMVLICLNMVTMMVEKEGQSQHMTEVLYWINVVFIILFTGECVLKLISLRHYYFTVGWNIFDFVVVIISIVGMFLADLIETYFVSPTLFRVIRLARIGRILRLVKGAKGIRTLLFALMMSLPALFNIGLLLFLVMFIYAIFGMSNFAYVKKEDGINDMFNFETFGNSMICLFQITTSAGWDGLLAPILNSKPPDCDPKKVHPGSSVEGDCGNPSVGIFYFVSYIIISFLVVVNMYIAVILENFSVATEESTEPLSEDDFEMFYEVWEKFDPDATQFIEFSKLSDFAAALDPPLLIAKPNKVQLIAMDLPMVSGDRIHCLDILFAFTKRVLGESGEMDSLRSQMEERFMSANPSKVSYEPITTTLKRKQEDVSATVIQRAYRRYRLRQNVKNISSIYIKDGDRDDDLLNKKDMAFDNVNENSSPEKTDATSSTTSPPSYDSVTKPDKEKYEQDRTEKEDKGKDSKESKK
Target sequence in this assay (Q07699 whole entry partner, looked up): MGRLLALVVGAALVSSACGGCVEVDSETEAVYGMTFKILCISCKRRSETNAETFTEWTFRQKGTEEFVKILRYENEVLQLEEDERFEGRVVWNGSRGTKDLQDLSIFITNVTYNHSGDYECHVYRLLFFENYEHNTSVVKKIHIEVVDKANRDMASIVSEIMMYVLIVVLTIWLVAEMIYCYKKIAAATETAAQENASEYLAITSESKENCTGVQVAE

hNav1.7 [2] = biological target: T1, hNav1.7; test: Patch voltage clamp electrophysiology assay (EP), Syncropatch 384PE, CHO cells expressing Nav1.7; assay type: cell-based; conditions: holding potential -50 mV; […] compound incubation; read-out: EP_SP hNav1.7 (Ex. 243B) IC50
Outline: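 Automated whole-cell patch clamp on CHO cells stably expressing human Nav1.7, CsCl/EGTA internal and NMDG/80 mM Na+ external (pH 7.4). From −50 mV holding, −10 mV step, 20 ms recovery at −150 mV, then second −10 mV pulse where block is measured; inhibition after 7.5 min compound incubation.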
Target sequence in this assay (Q15858 other isoform, or with tags, fused parts or gaps): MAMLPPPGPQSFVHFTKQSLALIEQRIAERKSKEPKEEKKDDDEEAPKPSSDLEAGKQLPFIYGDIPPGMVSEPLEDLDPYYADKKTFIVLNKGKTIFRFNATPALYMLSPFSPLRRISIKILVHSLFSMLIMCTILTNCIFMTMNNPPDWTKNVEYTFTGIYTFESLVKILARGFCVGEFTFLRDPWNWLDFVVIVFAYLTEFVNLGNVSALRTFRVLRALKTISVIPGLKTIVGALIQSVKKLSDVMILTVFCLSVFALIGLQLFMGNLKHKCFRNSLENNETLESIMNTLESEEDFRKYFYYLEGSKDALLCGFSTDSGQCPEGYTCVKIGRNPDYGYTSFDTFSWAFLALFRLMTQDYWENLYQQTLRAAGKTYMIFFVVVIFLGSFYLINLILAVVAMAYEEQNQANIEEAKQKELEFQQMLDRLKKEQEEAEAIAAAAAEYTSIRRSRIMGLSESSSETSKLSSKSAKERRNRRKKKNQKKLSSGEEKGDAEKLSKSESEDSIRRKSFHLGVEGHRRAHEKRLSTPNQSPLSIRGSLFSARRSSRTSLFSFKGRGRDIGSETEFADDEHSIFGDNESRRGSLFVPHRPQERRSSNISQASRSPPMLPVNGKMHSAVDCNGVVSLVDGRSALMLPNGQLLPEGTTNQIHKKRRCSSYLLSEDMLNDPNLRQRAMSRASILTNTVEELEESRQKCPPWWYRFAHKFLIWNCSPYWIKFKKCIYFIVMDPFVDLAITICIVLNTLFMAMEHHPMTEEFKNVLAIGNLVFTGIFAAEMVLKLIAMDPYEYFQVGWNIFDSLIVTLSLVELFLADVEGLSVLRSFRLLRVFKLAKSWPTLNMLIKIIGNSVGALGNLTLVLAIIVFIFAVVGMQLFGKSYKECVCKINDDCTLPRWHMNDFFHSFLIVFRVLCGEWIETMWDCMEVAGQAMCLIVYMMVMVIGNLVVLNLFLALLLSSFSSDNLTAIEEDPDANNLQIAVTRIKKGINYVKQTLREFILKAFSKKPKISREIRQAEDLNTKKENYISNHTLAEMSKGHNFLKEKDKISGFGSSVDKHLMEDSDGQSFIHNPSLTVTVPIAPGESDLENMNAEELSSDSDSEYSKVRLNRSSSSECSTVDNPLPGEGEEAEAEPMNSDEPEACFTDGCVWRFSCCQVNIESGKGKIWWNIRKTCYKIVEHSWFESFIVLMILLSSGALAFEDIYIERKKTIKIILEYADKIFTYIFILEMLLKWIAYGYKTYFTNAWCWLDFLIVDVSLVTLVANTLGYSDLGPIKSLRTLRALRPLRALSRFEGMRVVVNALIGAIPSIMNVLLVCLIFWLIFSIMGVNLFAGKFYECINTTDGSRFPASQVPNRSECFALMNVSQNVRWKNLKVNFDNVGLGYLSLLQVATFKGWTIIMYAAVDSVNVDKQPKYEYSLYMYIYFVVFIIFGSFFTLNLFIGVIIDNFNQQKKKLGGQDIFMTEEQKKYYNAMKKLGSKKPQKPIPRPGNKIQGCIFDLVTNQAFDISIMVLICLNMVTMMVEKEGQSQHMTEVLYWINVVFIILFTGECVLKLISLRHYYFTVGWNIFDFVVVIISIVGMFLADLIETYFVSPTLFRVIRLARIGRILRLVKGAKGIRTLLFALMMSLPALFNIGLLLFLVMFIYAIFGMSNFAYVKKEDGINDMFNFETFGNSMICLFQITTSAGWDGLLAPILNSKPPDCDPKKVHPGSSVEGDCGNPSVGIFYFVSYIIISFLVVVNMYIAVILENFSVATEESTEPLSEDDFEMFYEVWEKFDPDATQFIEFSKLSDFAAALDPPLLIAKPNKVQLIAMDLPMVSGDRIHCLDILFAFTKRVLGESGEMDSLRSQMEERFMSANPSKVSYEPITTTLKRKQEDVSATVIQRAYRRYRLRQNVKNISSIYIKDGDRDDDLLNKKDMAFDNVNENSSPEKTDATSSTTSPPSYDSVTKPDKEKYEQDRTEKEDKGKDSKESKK

| SMILES | IC50 (hNav1.7 [1]) | IC50 (hNav1.7 [2]) |
| --- | --- | --- |
| CN(C)CC(=O)N(C)[C@H]1CCCC[C@@H]1Nc1cc(F)c(S(=O)(=O)Nc2nccs2)cc1Cl [Example 167, N-((1S,2S)-2-((2-chloro-5-fluoro-4-(N-(thiazol-2-yl)sulfamoyl)phenyl)amino)cyclohexyl)-2-(dimethylamino)-N-methylacetamide] | 0.0917 µM | 0.0187 µM |
| O=S(=O)(Nc1nccs1)c1cc(Cl)c(N[C@H]2CCCC[C@@H]2N2CCC[C@H](CO)C2)cc1F [Example 168, 5-chloro-2-fluoro-4-(((1S,2S)-2-((S)-3-(hydroxymethyl)piperidin-1-yl)cyclohexyl)amino)-N-(thiazol-2-yl)benzenesulfonamide formate] | 0.04 µM | 0.00516 µM |
| O=S(=O)(Nc1nccs1)c1cc(Cl)c(N[C@H]2CCCC[C@@H]2N2CCC[C@@H](CO)C2)cc1F [Example 169, 5-chloro-2-fluoro-4-(((1S,2S)-2-((R)-3-(hydroxymethyl)piperidin-1-yl)cyclohexyl)amino)-N-(thiazol-2-yl)benzenesulfonamide formate] | 0.00756 µM | 0.00334 µM |
| CN(C1CNC1)[C@H]1C[C@@H](C(F)(F)F)CC[C@@H]1Nc1cc(F)c(S(=O)(=O)Nc2cccc(F)n2)cc1Cl [Example 170, 4-(((1S,2S,4S)-2-(azetidin-3-yl(methyl)amino)-4-(trifluoromethyl)cyclohexyl)amino)-5-chloro-2-fluoro-N-(6-fluoropyridin-2-yl)benzenesulfonamide] | 0.00292 µM | 0.00368 µM |
| Cc1csc(NS(=O)(=O)c2cc(Cl)c(N[C@H]3CC[C@H](C(F)(F)F)C[C@@H]3N(C)C)cc2F)n1 [Example 171, 5-chloro-4-(((1S,2S,4S)-2-(dimethylamino)-4-(trifluoromethyl)cyclohexyl)amino)-2-fluoro-N-(4-methylthiazol-2-yl)benzenesulfonamide formate] | 0.255 µM | 0.0122 µM |
| Cc1nc(NS(=O)(=O)c2cc(Cl)c(N[C@H]3CCCC[C@@H]3N(C)C)cc2F)sc1Cl [Example 172, 5-Chloro-N-(5-chloro-4-methylthiazol-2-yl)-4-(((1S,2S)-2-(dimethylamino)cyclohexyl)amino)-2-fluorobenzenesulfonamide] | 0.0382 µM | 0.0123 µM |
| CN(C1CN(CC(F)(F)F)C1)[C@H]1CCCC[C@@H]1Nc1cc(F)c(S(=O)(=O)Nc2nccs2)cc1Cl [Example 175, 5-Chloro-2-fluoro-4-(((1S,2S)-2-(methyl(1-(2,2,2-trifluoroethyl)azetidin-3-yl)amino)cyclohexyl)amino)-N-(thiazol-2-yl)benzenesulfonamide] | 0.316 µM | 0.0217 µM |
| N#C[C@@H]1CCCN([C@H]2CCCC[C@@H]2Nc2cc(F)c(S(=O)(=O)Nc3nccs3)cc2Cl)C1 [Example 176, 5-Chloro-4-(((1S,2S)-2-((R)-3-cyanopiperidin-1-yl)cyclohexyl)amino)-2-fluoro-N-(thiazol-2-yl)benzenesulfonamide] | 0.491 µM | 0.00872 µM |
| N#C[C@H]1CCCN([C@H]2CCCC[C@@H]2Nc2cc(F)c(S(=O)(=O)Nc3nccs3)cc2Cl)C1 [Example 177, 5-chloro-4-(((1S,2S)-2-((S)-3-cyanopiperidin-1-yl)cyclohexyl)amino)-2-fluoro-N-(thiazol-2-yl)benzenesulfonamide] | 0.0609 µM | 0.00291 µM |
| CN(C)[C@H]1C[C@@H](C(F)(F)F)CC[C@@H]1Nc1cc(F)c(S(=O)(=O)Nc2ccncn2)cc1C1CC1 [Example 178, 5-cyclopropyl-4-(((1S,2S,4S)-2-(dimethylamino)-4-(trifluoromethyl)cyclohexyl)amino)-2-fluoro-N-(pyrimidin-4-yl)benzenesulfonamide] | 0.205 µM | 0.0191 µM |
| CN1CC(C(=O)N(C)[C@H]2CCCC[C@@H]2Nc2cc(F)c(S(=O)(=O)Nc3nccs3)cc2Cl)C1 [Example 179, N-((1S,2S)-2-((2-Chloro-5-fluoro-4-(N-(thiazol-2-yl)sulfamoyl)phenyl)amino)cyclohexyl)-N,1-dimethylazetidine-3-carboxamide] | 0.27 µM | 0.00683 µM |
| CN(C1CCC1)[C@H]1C[C@@H](C(F)(F)F)CC[C@@H]1Nc1cc(F)c(S(=O)(=O)Nc2ccncn2)cc1Cl [Example 180, 5-chloro-4-(((1S,2S,4S)-2-(cyclobutyl(methyl)amino)-4-(trifluoromethyl)cyclohexyl)amino)-2-fluoro-N-(pyrimidin-4-yl)benzenesulfonamide] | 0.666 µM | 0.0495 µM |
| CN(C)[C@H]1C[C@@H](c2cccc(C(F)(F)F)c2)CC[C@@H]1Nc1cc(F)c(S(=O)(=O)Nc2ccncn2)cc1Cl [Example 181, 5-chloro-4-[[(1S,2S,4S)-2-(dimethylamino)-4-[3-(trifluoromethyl)phenyl]cyclohexyl]amino]-2-fluoro-N-pyrimidin-4-yl-benzenesulfonamide] | 0.00131 µM | 0.000783 µM |
| O=S(=O)(Nc1ccncn1)c1cc(Cl)c(N[C@@H]2CCCC[C@H]2N2CC3C(C2)C3(F)F)cc1F (stereo partly drawn) [Example 182, 5-chloro-4-(((1R,2R)-2-(6,6-difluoro-3-azabicyclo[3.1.0]hexan-3-yl)cyclohexyl)amino)-2-fluoro-N-(pyrimidin-4-yl)benzenesulfonamide] | 2 µM | 1.52 µM |
| O=S(=O)(Nc1ccncn1)c1cc(Cl)c(N[C@H]2CCCC[C@@H]2N2CC3C(C2)C3(F)F)cc1F (stereo partly drawn) [Example 183, 5-chloro-4-(((1S,2S)-2-(6,6-difluoro-3-azabicyclo[3.1.0]hexan-3-yl)cyclohexyl)amino)-2-fluoro-N-(pyrimidin-4-yl)benzenesulfonamide] | 0.277 µM | 0.012 µM |
| O=S(=O)(Nc1cccc(F)n1)c1cc(Cl)c(N[C@@H]2CCCC[C@H]2N2C[C@@H]3[C@@H](CO)[C@@H]3C2)cc1F [Example 184] | 2 µM | 4.96 µM |
| O=S(=O)(Nc1cccc(F)n1)c1cc(Cl)c(N[C@H]2CCCC[C@@H]2N2C[C@@H]3[C@@H](CO)[C@@H]3C2)cc1F [Example 185] | 0.771 µM | 0.0362 µM |
| CN(C)[C@H]1CC(F)(F)CC[C@@H]1Nc1cc(F)c(S(=O)(=O)Nc2nccs2)cc1Cl [Example 187, 5-chloro-4-(((1S,2S)-2-(dimethylamino)-4,4-difluorocyclohexyl)amino)-2-fluoro-N-(thiazol-2-yl)benzenesulfonamide formate] | 0.776 µM | 0.00765 µM |
| CN(C)[C@@H]1CC(F)(F)CC[C@H]1Nc1cc(F)c(S(=O)(=O)Nc2nccs2)cc1Cl [Example 188, 5-chloro-4-(((1R,2R)-2-(dimethylamino)-4,4-difluorocyclohexyl)amino)-2-fluoro-N-(thiazol-2-yl)benzenesulfonamide formate] | 2 µM | 0.684 µM |
| CN1CC(N(CC(F)(F)F)[C@H]2CCCC[C@@H]2Nc2cc(F)c(S(=O)(=O)Nc3nccs3)cc2Cl)C1 [Example 190, 5-Chloro-2-fluoro-4-(((1S,2S)-2-((1-methylazetidin-3-yl)(2,2,2-trifluoroethyl)amino)cyclohexyl)amino)-N-(thiazol-2-yl)benzenesulfonamide] | 0.478 µM | 0.0415 µM |
| CN(C)[C@H]1CCC(F)C[C@@H]1Nc1cc(F)c(S(=O)(=O)Nc2nccs2)cc1Cl (stereo partly drawn) [Example 191, 5-chloro-4-(((1S,2S)-2-(dimethylamino)-5-fluorocyclohexyl)amino)-2-fluoro-N-(thiazol-2-yl)benzenesulfonamide formate] | 0.777 µM | 0.0394 µM |
| CN(C)[C@H]1C[C@@H](F)CC[C@@H]1Nc1cc(F)c(S(=O)(=O)Nc2nccs2)cc1Cl [Example 192, 5-chloro-4-(((1S,2S,4S)-2-(dimethylamino)-4-fluorocyclohexyl)amino)-2-fluoro-N-(thiazol-2-yl)benzenesulfonamide] | 0.324 µM | 0.0255 µM |
| CN(C)[C@H]1C[C@H](F)CC[C@@H]1Nc1cc(F)c(S(=O)(=O)Nc2nccs2)cc1Cl [Example 193, 5-chloro-4-(((1S,2S,4R)-2-(dimethylamino)-4-fluorocyclohexyl)amino)-2-fluoro-N-(thiazol-2-yl)benzenesulfonamide] | 0.911 µM | 0.0394 µM |
| CN(C)[C@H]1C[C@@H]2[C@H](C[C@@H]1Nc1cc(F)c(S(=O)(=O)Nc3nccs3)cc1Cl)C2(Cl)Cl [Example 194, 5-Chloro-4-(((1S,3S,4S,6R)-7,7-dichloro-4-(dimethylamino)bicyclo[4.1.0]heptan-3-yl)amino)-2-fluoro-N-(thiazol-2-yl)benzenesulfonamide formate] | 2 µM | 0.4 µM |
| CN(C)[C@@H]1C[C@@H]2[C@H](C[C@H]1Nc1cc(F)c(S(=O)(=O)Nc3nccs3)cc1Cl)C2(Cl)Cl [Example 195, 5-Chloro-4-(((1S,3R,4R,6R)-7,7-dichloro-4-(dimethylamino)bicyclo[4.1.0]heptan-3-yl)amino)-2-fluoro-N-(thiazol-2-yl)benzenesulfonamide formate] | 0.00811 µM | 0.0014 µM |
| CN(C)[C@H]1C[C@H]2[C@@H](C[C@@H]1Nc1cc(F)c(S(=O)(=O)Nc3nccs3)cc1Cl)C2(Cl)Cl [Example 196, 5-Chloro-4-(((1R,3S,4S,6S)-7,7-dichloro-4-(dimethylamino)bicyclo[4.1.0]heptan-3-yl)amino)-2-fluoro-N-(thiazol-2-yl)benzenesulfonamide formate] | 0.664 µM | 0.12 µM |
| CN(C)[C@@H]1C[C@H]2[C@@H](C[C@H]1Nc1cc(F)c(S(=O)(=O)Nc3nccs3)cc1Cl)C2(Cl)Cl [Example 197, 5-Chloro-4-(((1R,3R,4R,6S)-7,7-dichloro-4-(dimethylamino)bicyclo[4.1.0]heptan-3-yl)amino)-2-fluoro-N-(thiazol-2-yl)benzenesulfonamide formate] | 0.038 µM | 0.00385 µM |
